{"source": "patent US7125990B2", "about": "“Imidazolyl derivatives as corticotropin releasing factor inhibitors” (Bristol-Myers Squibb COmpany, priority 2001, dated 2006)", "data": [{"molecular_target": "T1, CRF1 receptors (Homo sapiens, UniProt P34998)", "T1 construct": "endogenous in cells; host or cells: IMR-32 cells, transformed with 2.5 µM 5'-bromo-2'-deoxyuridine for 10 days; membrane preparation", "T1 sequence (P34998 24-415)": "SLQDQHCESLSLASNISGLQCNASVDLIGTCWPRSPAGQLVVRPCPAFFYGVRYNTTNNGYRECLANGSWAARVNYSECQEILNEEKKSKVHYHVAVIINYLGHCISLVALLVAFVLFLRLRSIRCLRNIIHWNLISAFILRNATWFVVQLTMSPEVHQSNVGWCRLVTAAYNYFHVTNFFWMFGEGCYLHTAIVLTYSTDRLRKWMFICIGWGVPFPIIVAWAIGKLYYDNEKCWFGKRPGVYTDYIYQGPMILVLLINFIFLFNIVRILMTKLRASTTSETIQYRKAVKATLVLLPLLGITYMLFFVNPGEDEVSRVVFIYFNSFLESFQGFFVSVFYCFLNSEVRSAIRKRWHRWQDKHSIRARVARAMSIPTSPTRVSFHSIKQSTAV", "test": "CRF1 receptor radioligand binding assay ([125I]-oCRF competition, IMR-32 cell membranes)", "conditions": "IMR-32 cell membranes, [125I]-oCRF 100 pM; read-out: Ki (CRF-1R)", "summary_of_the_method": "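Buffer: Tris pH 7.2 with MgCl2, BSA, Triton X-100, aprotinin, leupeptin; reaction stopped with ice-cold wash and filtered. Nonspecific binding set with 10 μM oCRF.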", "units": {"Ki": "nM"}, "values": [{"smiles": "CCCN(CCc1ccccc1)Cc1c(C(F)(F)F)nc2n(-c3ccc(Cl)cc3Cl)c3ccccc3n12", "note": "[Example 182, [8-(2,4-Dichloro-phenyl)-2-trifluoromethyl-8H-1,3a,8-triaza-cyclopenta[α]inden-3-ylmethyl]-phenethyl-propyl-amine]", "Ki": "< 10000"}, {"smiles": "FC(F)(F)c1nc2n(-c3ccc(Cl)cc3Cl)c3ccccc3n2c1CN(CC1CC1)CC(F)(F)C(F)(F)F", "note": "[Example 183, Cyclopropylmethyl-[8-(2,4-dichloro-phenyl)-2-trifluoromethyl-8H-1,3a,8-triaza-cyclopenta[α]inden-3-ylmethyl]-(2,2,3,3,3-pentafluoro-propyl)-amine]", "Ki": "< 10000"}, {"smiles": "C=CCN(CC=C)Cc1c(C(F)(F)F)nc2n(-c3ccc(Cl)cc3Cl)c3ccccc3n12", "note": "[Example 184, Diallyl-[8-(2,4-dichloro-phenyl)-2-trifluoromethyl-8H-1,3a,8-triaza-cyclopenta[α]inden-3-ylmethyl]-amine]", "Ki": "< 10000"}, {"smiles": "FC(F)(F)CN(Cc1c(C(F)(F)F)nc2n(-c3ccc(Cl)cc3Cl)c3ccccc3n12)CC1CCC1", "note": "[Example 185, Cyclobutylmethyl-[8-(2,4-dichloro-phenyl)-2-trifluoromethyl-8H-1,3a,8-triaza-cyclopenta[α]inden-3-ylmethyl]-(2,2,2-trifluoro-ethyl)-amine]", "Ki": "< 10000"}, {"smiles": "CCCN(Cc1c(C(F)(F)F)nc2n(-c3ccc(Cl)cc3Cl)c3ccccc3n12)CC1CCC1", "note": "[Example 186, Cyclobutylmethyl-[8-(2,4-dichloro-phenyl)-2-trifluoromethyl-8H-1,3a,8-triaza-cyclopenta[α]inden-3-ylmethyl]-propyl-amine]", "Ki": "< 10000"}, {"smiles": "CC(C)c1ccc(-n2c3ccccc3n3c(CN(CC4CC4)CC4CC4)c(C(F)(F)F)nc23)c(Br)c1", "note": "[Example 187, [8-(2-Bromo-4-isopropyl-phenyl)-2-trifluoromethyl-8H-1,3a,8-triaza-cyclopenta[α]inden-3-ylmethyl]-bis-cyclopropylmethyl-amine]", "Ki": "< 100"}, {"smiles": "CC(C)c1ccc(-n2c3ccccc3n3c(CN(CC4CC4)CC(F)(F)F)c(C(F)(F)F)nc23)c(Br)c1", "note": "[Example 188, [8-(2-Bromo-4-isopropyl-phenyl)-2-trifluoromethyl-8H-1,3a,8-triaza-cyclopenta[α]inden-3-ylmethyl]-cyclopropylmethyl-(2,2,2-trifluoro-ethyl)-amine]", "Ki": "< 100"}, {"smiles": "CC(C)c1ccc(-n2c3ccccc3n3c(CN(CCC(F)(F)F)CC4CC4)c(C(F)(F)F)nc23)c(Br)c1", "note": "[Example 189, [8-(2-Bromo-4-isopropyl-phenyl)-2-trifluoromethyl-8H-1,3a,8-triaza-cyclopenta[α]inden-3-ylmethyl]-cyclopropylmethyl-(3,3,3-trifluoro-propyl)-amine]", "Ki": "< 1000"}, {"smiles": "CCN(Cc1c(C(F)(F)F)nc2n(-c3ccc(C(C)C)cc3Br)c3ccccc3n12)CC1CC1", "note": "[Example 190, [8-(2-Bromo-4-isopropyl-phenyl)-2-trifluoromethyl-8H-1,3a,8-triaza-cyclopenta[α]inden-3-ylmethyl]-cyclopropylmethyl-ethyl-amine]", "Ki": "< 1000"}, {"smiles": "CC(C)c1ccc(-n2c3ccccc3n3c(CN(CC4CC4)CC(F)(F)C(F)(F)F)c(C(F)(F)F)nc23)c(Br)c1", "note": "[Example 191, [8-(2-Bromo-4-isopropyl-phenyl)-2-trifluoromethyl-8H-1,3a,8-triaza-cyclopenta[α]inden-3-ylmethyl]-cyclopropylmethyl-(2,2,3,3,3-pentafluoro-propyl)-amine]", "Ki": "< 1000"}, {"smiles": "C=CCN(CC=C)Cc1c(C(F)(F)F)nc2n(-c3ccc(C(C)C)cc3Br)c3ccccc3n12", "note": "[Example 192, Diallyl-[8-(2-bromo-4-isopropyl-phenyl)-2-trifluoromethyl-8H-1,3a,8-triaza-cyclopenta[α]inden-3-ylmethyl]-amine]", "Ki": "< 1000"}, {"smiles": "CCCN(CCc1ccccc1)Cc1c(C(F)(F)F)nc2n(-c3ccc(C(C)C)cc3Br)c3ccccc3n12", "note": "[Example 193, [8-(2-Bromo-4-isopropyl-phenyl)-2-trifluoromethyl-8H-1,3a,8-triaza-cyclopenta[α]inden-3-ylmethyl]-phenethyl-propyl-amine]", "Ki": "< 1000"}, {"smiles": "CC(C)c1ccc(-n2c3ccccc3n3c(CN(CC4CCC4)CC(F)(F)F)c(C(F)(F)F)nc23)c(Br)c1", "note": "[Example 194, [8-(2-Bromo-4-isopropyl-phenyl)-2-trifluoromethyl-8H-1,3a,8-triaza-cyclopenta[α]inden-3-ylmethyl]-cyclobutylmethyl-(2,2,2-trifluoro-ethyl)-amine]", "Ki": "< 1000"}, {"smiles": "CCCN(Cc1c(C(F)(F)F)nc2n(-c3ccc(C(C)C)cc3Br)c3ccccc3n12)CC1CCC1", "note": "[Example 195, [8-(2-Bromo-4-isopropyl-phenyl)-2-trifluoromethyl-8H-1,3a,8-triaza-cyclopenta[α]inden-3-ylmethyl]-cyclobutylmethyl-propyl-amine]", "Ki": "< 1000"}, {"smiles": "CCN(CCc1ccccc1)Cc1c(C(F)(F)F)nc2n(-c3ccc(C(C)C)cc3Br)c3ccccc3n12", "note": "[Example 196, [8-(2-Bromo-4-isopropyl-phenyl)-2-trifluoromethyl-8H-1,3a,8-triaza-cyclopenta[α]inden-3-ylmethyl]-ethyl-phenethyl-amine]", "Ki": "< 1000"}, {"smiles": "CCCN(CCC(F)(F)F)Cc1c(C(F)(F)F)nc2n(-c3ccc(C(C)C)cc3Br)c3ccccc3n12", "note": "[Example 197, [8-(2-Bromo-4-isopropyl-phenyl)-2-trifluoromethyl-8H-1,3a,8-triaza-cyclopenta[α]inden-3-ylmethyl]-propyl-(3,3,3-trifluoro-propyl)-amine]", "Ki": "< 1000"}, {"smiles": "C=CCN(CCC)Cc1c(C(F)(F)F)nc2n(-c3ccc(C(C)C)cc3Br)c3ccccc3n12", "note": "[Example 198, Allyl-[8-(2-bromo-4-isopropyl-phenyl)-2-trifluoromethyl-8H-1,3a,8-triaza-cyclopenta[α]inden-3-ylmethyl]-propyl-amine]", "Ki": "< 1000"}, {"smiles": "CC(C)c1ccc(-n2c3ccccc3n3c(CN(CCC(F)(F)F)Cc4ccc(F)cc4)c(C(F)(F)F)nc23)c(Br)c1", "note": "[Example 199, [8-(2-Bromo-4-isopropyl-phenyl)-2-trifluoromethyl-8H-1,3a,8-triaza-cyclopenta[α]inden-3-ylmethyl]-(4-fluoro-benzyl)-(3,3,3-trifluoro-propyl)-amine]", "Ki": "< 10000"}, {"smiles": "CCCN(Cc1c(C(F)(F)F)nc2n(-c3ccc(C(C)C)cc3Br)c3ccccc3n12)CC(F)(F)F", "note": "[Example 200, [8-(2-Bromo-4-isopropyl-phenyl)-2-trifluoromethyl-8H-1,3a,8-triaza-cyclopenta[α]inden-3-ylmethyl]-propyl-(2,2,2-trifluoro-ethyl)-amine]", "Ki": "< 10000"}, {"smiles": "CC(C)c1ccc(-n2c3ccccc3n3c(CN(CCc4ccccc4)CC(F)(F)F)c(C(F)(F)F)nc23)c(Br)c1", "note": "[Example 201, [8-(2-Bromo-4-isopropyl-phenyl)-2-trifluoromethyl-8H-1,3a,8-triaza-cyclopenta[α]inden-3-ylmethyl]-phenethyl-(2,2,2-trifluoro-ethyl)-amine]", "Ki": "< 10000"}, {"smiles": "CC(C)c1ccc(-n2c3ccccc3n3c(CN(CCC(F)(F)F)Cc4ccccc4)c(C(F)(F)F)nc23)c(Br)c1", "note": "[Example 202, Benzyl-[8-(2-bromo-4-isopropyl-phenyl)-2-trifluoromethyl-8H-1,3a,8-triaza-cyclopenta[α]inden-3-ylmethyl]-(3,3,3-trifluoro-propyl)-amine]", "Ki": "< 10000"}]}]}
